Molecules are shown by their SMILES.

Experiment [1] addresses BRD4(1) (amino acids 44-168) (Homo sapiens (Human), UniProt O60885). Kind of experiment: BRD4 binding strength, TR-FRET (HTRF) assay of BRD4(1) / acetylated histone H4 peptide interaction. The settings on record: inhibition of BRD4(1)/Ac-H4 peptide interaction. An excerpt:
To assess the BRD4 binding strength of the compounds according to the invention, the ability thereof to inhibit the interaction between BRD4 and acetylated histone H4 in a dose-dependent manner was quantified. For this purpose, a time-resolved fluorescence resonance energy transfer (TR-FRET) assay was used, which measures the binding between N-terminally His6-tagged BRD4(1) (amino acids 44-168) and a synthetic acetylated histone H4 (Ac-H4) peptide with sequence […]-biotin. The recombinant BRD4 protein produced in-house according to Filippakopoulos et al., Cell, 2012, 149:214-231 was expressed in E. coli and purified by means of (Ni-NTA) affinity and (Sephadex G-75) size exclusion chromatography. The Ac-H4 peptide can be purchased, for example, from Biosyntan (Berlin, Germany). […] For this purpose, 100-fold concentrated solutions in DMSO were prepared by serial dilutions (1:3.4) of a 2 mM stock solution into a clear, 384-well microtitre plate (Greiner Bio-One, Frickenhausen, Germany). From this, 50 nl were transferred into a black test plate (Greiner Bio-One, Frickenhausen, Germany). […] This was followed by a 10-minute incubation step at 22° C. for the pre-equilibration of putative complexes between BRD4 and the substances. Subsequently, 3 μl of a solution of 1.67 times the concentration (in assay buffer) consisting of Ac-H4 peptide (83.5 nM) and TR-FRET detection reagents [16.7 nM anti-6His-XL665 and 3.34 nM streptavidin cryptate (both from Cisbio Bioassays, Codolet, France), and 668 mM potassium fluoride (KF)] were added. The mixture was then incubated in the dark at 22° C. for one hour and then at 4° C. overnight. The formation of BRD4/Ac-H4 complexes was determined by the measurement of the resonance energy transfer from the streptavidin-Eu cryptate to the anti-6His-XL665 antibody present in the reaction. […] The ratio of the emissions at 665 nm and at 622 nm was taken as an indicator of the amount of BRD4/Ac-H4 complexes formed.
For orientation: TR-FRET usually uses a lanthanide donor and a delayed reading to cut background.

For experiment [2], the system named is MOLM-13 cells. The experiment is described as follows: Cell proliferation (alamarBlue), MOLM-13. The class given is cell-based. The settings on record: Homo sapiens, acute myeloid leukaemia cell line, 96 hours incubation. The method, then:
(§1) The ability of the compounds according to the invention to inhibit the proliferation of various cell lines was determined.
(§2) Cell viability was determined by means of the alamarBlue® reagent (Invitrogen). The cells were sown at different densities (MOLM-13, LAPC-4, MOLP-8 and MDA-MB-231: 4000 cells/well; B16F10: 400 cells/well) in 100 μl of growth medium on 96-well microtitre plates. After overnight incubation at 37° C., the fluorescence values (CI values) were determined. The plates were then treated with various substance dilutions and incubated at 37° C. for 96 hours (MOLM-13, MDA-MB-231 and B16F10 cells), 120 hours (MOLP-8 cells) or 168 hours (LAPC-4 cells). Subsequently, the fluorescence values were determined (CO values). For the data analysis, the CI values were subtracted from the CO values and the results were compared between cells which had been treated with various dilutions of the substance or only with buffer solution.
(§3) The compounds according to the invention were tested in the cell lines in Table 2, which represent the indications specified by way of example:
(§4) The indications corresponding to the different cell lines can be found in Table 2.
(In general: Alamar Blue is a resazurin reagent that responds to reducing activity.)

The test system of experiment [3] is LAPC-4 cells. Kind of experiment: Cell proliferation (alamarBlue), LAPC-4. The note with it: Homo sapiens, LAPC4; prostate carcinoma (androgen receptor-positive) cell line, 168 hours incubation. It counts as cell-based. As for the experimental part:
as §1
as §2, with “values).” for “values). For the data analysis, the CI values were subtracted from the CO values and the results were compared between cells which had been treated with various dilutions of the substance or only with buffer solution.”
as §3, §4

The subject of experiment [4] is B16F10 cells. The experiment is described as follows: Cell proliferation (alamarBlue), B16F10. The class given is cell-based. The settings on record: Mus musculus, B16-F10; melanoma cell line, 96 hours incubation. As for the experimental part: as §1, §2, §3, §4
Experiment [5] concerns MOLP-8 cells. The experiment is described as follows: Cell proliferation (alamarBlue), MOLP-8. The class given is cell-based. The settings on record: Homo sapiens, multiple myeloma cell line, 120 hours incubation. As for the experimental part: as §1
as §2, with “values).” for “values). For the data analysis, the CI values were subtracted from the CO values and the results were compared between cells which had been treated with various dilutions of the substance or only with buffer solution.”
as §3, §4

What is called IC50 is the concentration at which inhibition is half-maximal. Take `CCOC(=O)CC1C=C(c2cccc(Cl)c2)c2ccccc2-n2c(C)nnc21` (centres unmarked) [Example 7, ethyl [6-(3-chlorophenyl)-1-methyl-4H-[1,2,4]triazolo[4,3-a][1]benzazepin-4-yl]acetate]: the IC50 worked out at 230 nM in experiment [1], 720 nM in experiment [2], 750 nM in experiment [3] and 780 nM in experiment [4].
Regarding `Cc1nnc2n1-c1ccccc1C(c1ccc(Cl)cc1)=CC2Cc1nnc(-c2cccnc2)o1` (centres unmarked) [Example 44, 6-(4-chlorophenyl)-1-methyl-4-{[5-(pyridin-3-yl)-1,3,4-oxadiazol-2-yl]methyl}-4H-[1,2,4]triazolo[4,3-a][1]benzazepine], the IC50 in experiment [1] was 90 nM; in experiment [2], 420 nM; in experiment [5], 220 nM.
As for `Cc1nnc2n1-c1ccccc1C(c1ccc(Cl)cc1)=CC2Cc1nnc(C2CC2)o1` (centres unmarked) [Example 43, 6-(4-chlorophenyl)-4-[(5-cyclopropyl-1,3,4-oxadiazol-2-yl)methyl]-1-methyl-4H-[1,2,4]triazolo[4,3-a][1]benzazepine], the IC50 in experiment [1] stood at 130 nM; in experiment [2] it was 370 nM; in experiment [5], 210 nM.
Take `Cc1nnc2n1-c1ccccc1C(c1ccc(Cl)cc1)=CC2CC(=O)N1C2CCC1CC2` (centres unmarked) [Example 5, 1-(7-azabicyclo[2.2.1]hept-7-yl)-2-[6-(4-chlorophenyl)-1-methyl-4H-[1,2,4]triazolo[4,3-a][1]benzazepin-4-yl]ethanone]: the 50% inhibitory concentration (IC50) stood at 1400 nM in experiment [1], 1120 nM in experiment [2], 620 nM in experiment [3] and 870 nM in experiment [4].
For the compound `Cc1nnc2n1-c1ccccc1C(c1ccc(Cl)cc1)=CC2CC(=O)N1CC2(COC2)C1` (centres unmarked) [Example 3, 2-[6-(4-chlorophenyl)-1-methyl-4H-[1,2,4]triazolo[4,3-a][1]benzazepin-4-yl]-1-(2-oxa-6-azaspiro[3.3]hept-6-yl)ethanone], the 50% inhibitory concentration (IC50) was 220 nM in experiment [1], 630 nM in experiment [2], 470 nM in experiment [3] and 740 nM in experiment [4].
Consider `CCOC(=O)CC1C=C(c2ccc(Cl)cc2)c2ccccc2-n2c(C)nnc21` (centres unmarked) [Example 1, ethyl [6-(4-chlorophenyl)-1-methyl-4H-[1,2,4]triazolo[4,3-a][1]benzazepin-4-yl]acetate], for which the IC50 worked out at 180 nM in experiment [1], 330 nM in experiment [2], 260 nM in experiment [3] and 300 nM in experiment [4].
In the case of `Cc1nnc2n1-c1ccccc1C(c1ccc(Cl)cc1)=CC2Cc1nnc(-c2cccnc2)o1` (stereo in doubt) [Example 45, (−)-(4R)-6-(4-chlorophenyl)-1-methyl-4-{[5-(pyridin-3-yl)-1,3,4-oxadiazol-2-yl]methyl}-4H-[1,2,4]triazolo[4,3-a][1]benzazepine], the 50% inhibitory concentration (IC50) in experiment [1] worked out at 50 nM; in experiment [2], 100 nM; in experiment [4], 60 nM.
`Cc1nnc2n1-c1ccccc1C(c1ccc(Cl)cc1)=CC2CC(=O)N1C2CCC1CC2` (stereo in doubt) [Example 6, (−)-1 (7-azabicyclo[2.2.1]hept-7-yl)-2-[(4R)-6-(4-chlorophenyl)-1-methyl-4H-[1,2,4]triazolo[4,3-a][1]benzazepin-4-yl]ethanone]: the half-maximal inhibitory concentration (IC50) in experiment [1] was 600 nM; in experiment [2] it was 670 nM; in experiment [3] it was 1060 nM; in experiment [4] it was 1020 nM.
With `COc1ccc2c(c1)C(c1ccc(Cl)cc1)=CC(Cc1nnc(C)o1)c1nnc(C)n1-2` (centres unmarked) [Example 47, 6-(4-chlorophenyl)-8-methoxy-1-methyl-4-[(5-methyl-1,3,4-oxadiazol-2-yl)methyl]-4H-[1,2,4]triazolo[4,3-a][1]benzazepine], the IC50 in experiment [1] turned out to be 50 nM; in experiment [2], 150 nM; in experiment [5], 90 nM.
With `Cc1nnc2n1-c1ccccc1C(c1cccc(Cl)c1)=CC2CC(=O)N1CC2(COC2)C1` (stereo in doubt) [Example 11, (−)-2-[(4R)-6-(3-chlorophenyl)-1-methyl-4H-[1,2,4]triazolo[4,3-a][1]benzazepin-4-yl]-1-(2-oxa-6-azaspiro[3.3]hept-6-yl)ethanone], the IC50 in experiment [1] is 300 nM; in experiment [2] it was 4190 nM; in experiment [3], 7890 nM; in experiment [4], 9470 nM.
In the case of `Cc1nnc(CC2C=C(c3ccc(Cl)cc3)c3ccccc3-n3c(C)nnc32)s1` (centres unmarked) [Example 41, 6-(4-chlorophenyl)-1-methyl-4-[(5-methyl-1,3,4-thiadiazol-2-yl)methyl]-4H-[1,2,4]triazolo[4,3-a][1]benzazepine], the IC50 in experiment [1] amounted to 100 nM; in experiment [2] it was 720 nM; in experiment [5], 410 nM.
Take `Cc1nnc(CC2C=C(c3ccc(Cl)cc3)c3ccccc3-n3c(C)nnc32)o1` (centres unmarked) [Example 39, 6-(4-chlorophenyl)-1-methyl-4-[(5-methyl-1,3,4-oxadiazol-2-yl)methyl]-4H-[1,2,4]triazolo[4,3-a][1]benzazepine]: the values for the IC50 in experiment [1] and in experiment [2] were 40 nM and 320 nM, respectively.
Turning to `Cc1noc(CC2C=C(c3ccc(Cl)cc3)c3ccccc3-n3c(C)nnc32)n1` (centres unmarked) [Example 34, 6-(4-chlorophenyl)-1-methyl-4-[(3-methyl-1,2,4-oxadiazol-5-yl)methyl]-4H-[1,2,4]triazolo[4,3-a][1]benzazepine], the concentration for half-maximal inhibition (IC50) in experiment [1] worked out at 90 nM; in experiment [2], 360 nM.
For `Cc1nnc(CC2C=C(c3ccc(Cl)cc3)c3cc(-c4c(C)noc4C)ccc3-n3c(C)nnc32)o1` (centres unmarked) [Example 48, 6-(4-chlorophenyl)-8-(3,5-dimethyl-1,2-oxazol-4-yl)-1-methyl-4-[(5-methyl-1,3,4-oxadiazol-2-yl)methyl]-4H-[1,2,4]triazolo[4,3-a][1]benzazepine], the values for the IC50 in experiment [1], in experiment [2] and in experiment [5] were 340 nM, 1380 nM and 1620 nM, respectively.
Turning to `Cc1nnc2n1-c1ccccc1C(c1ccc(Cl)cc1)=CC2CC(=O)OC(C)(C)C` (stereo in doubt) [Example 9, tert-butyl (−)-[(4R)-6-(4-chlorophenyl)-1-methyl-4H-[1,2,4]triazolo[4,3-a][1]benzazepin-4-yl]acetate], the IC50 is 430 nM in experiment [2], 310 nM in experiment [3] and 430 nM in experiment [4].
As to `CC(=O)NNC(=O)CC1C=C(c2ccc(Cl)cc2)c2ccccc2-n2c(C)nnc21` (stereo in doubt) [Example 40, N′-acetyl-2-[(4R)-6-(4-chlorophenyl)-1-methyl-4H-[1,2,4]triazolo[4,3-a][1]benzazepin-4-yl]acetohydrazide], the half-inhibitory concentration (IC50) in experiment [1] turned out to be 40 nM; in experiment [2], 170 nM; in experiment [5], 80 nM.
`Cc1nc(CC2C=C(c3ccc(Cl)cc3)c3ccccc3-n3c(C)nnc32)no1` (centres unmarked) [Example 46, 6-(4-chlorophenyl)-1-methyl-4-[(5-methyl-1,2,4-oxadiazol-3-yl)methyl]-4H-[1,2,4]triazolo[4,3-a][1]benzazepine]: the half-inhibitory concentration (IC50) in experiment [1] stood at 80 nM; in experiment [2], 270 nM; in experiment [5], 140 nM.
Regarding `CCOC(=O)CC1C=C(c2ccc(Cl)cc2)c2ccccc2-n2c(C)nnc21` (stereo in doubt) [Example 2, ethyl (−)-(4R)-[6-(4-chlorophenyl)-1-methyl-4H-[1,2,4]triazolo[4,3-a][1]benzazepin-4-yl]acetate], the IC50 came out at 30 nM in experiment [1], 120 nM in experiment [2], 80 nM in experiment [3] and 100 nM in experiment [4].

These data come from patent US9663523B2, “BET protein-inhibiting 5-aryltriazoleazepines” (BAYER PHARMA AKTIENGESELLSCHAFT, priority 2012, dated 2017).
